These results are taken from patent US5602140A, “Purine derivatives and suppressants for inflammatory diseases” (Japan Energy Corporation, priority 1994, dated 1997).

In test [1] the test system is TXA2 synthesis (crude TXA2 synthetase). The conditions noted are these: J. Med. Chem., 24, 1139-1149 (1981); cited from earlier work.
Test [2] has as its target TXA2 synthesis (crude TXA2 synthetase). In words: Inhibition of TXA2 synthesis (crude TXA2 synthetase, labeled arachidonic acid, RIA). To be noted: TXA2 formation, 37° C., 10 min. The test is classed as biochemical, human. How it is done: Inhibitory effect against TXA2 synthesis was evaluated by the method shown below determining the formation of TXA2 as an arachidonic acid metabolite in the presence of purine derivatives of the present invention.
TXA2 (thromboxane A2) is reported to be synthesized by TXA2 synthetase in arachidonic acid cascade via a cyclic peroxide (PGH2) formed by cyclooxygenase system. Crude TXA2 synthetase was prepared by the following method in the present invention. Blood drawn from healthy volunteer was centrifuged at 200 G for 15 min. and the resulting supernatant was further centrifuged at 2,000 G for 10 min. to give precipitates. The precipitates were homogenized in 0.01M phosphate buffer and centrifuged at 1,000 G for 10 min. to give a supernatant. The resultant supernatant was used as a crude TXA2 synthetase in the following processes. […] The reaction solution was incubated at 37° C. for 10 min. and TXA2 formed in the reaction mixture was determined by RIA method using a commercially available kit (Amersham Co., Ltd., RIA kit). The inhibitory rate was calculated from the difference between the determined amount of formed TXA2 and that carried out in the absence of the test compound. When the difference of formed amount of TXA2 was 0 (zero), then the inhibitory rate was made 0% and when the formation of TXA2 was equal to that of solvent control without TXA2 synthetase, then the inhibitory rate was made 100%.
The inhibitory rate was estimated for various concentrations of said test compounds and the concentration of 50%-inhibition (IC50) was regressively calculated. The inhibitory effect against TXA2 formation was evaluated using IC50.

Test [3] deals with platelet aggregation induced by PAF. In words: Anti-PAF activity: inhibition of platelet aggregation induced by PAF in platelet rich plasma. The test is classed as cell-based, rabbit. The conditions noted are these: Oryctolagus cuniculus, PAF 10 nM, test compound concentration 30 μM, read-out: Inhibitory rate. How it is done:
Anti-PAF activity of purine derivatives of the present invention was evaluated in the inhibition of platelet aggregation induced by PAF (platelet activation factor).
In the present evaluation, blood was drawn from rabbit and 9 volumes of the blood was added with 1 volume of 3.8% sodium citrate solution, centrifuged at 2,000 rpm for 3 min. to give platelet rich plasma (PRP). In a platelet aggregation determination apparatus, 200 μl of the PRP solution and 25 μl of a solution prepared from a predetermined amount of the test compound were mixed and incubated for 2 min. The incubated mixture was added with 25 μl of a solution containing a predetermined amount of PAF to cause platelet aggregation induced by PAF in the test solution. A concentration of PAF was 10 nM in the test solution. The inhibitory rate against platelet aggregation induced by PAF was calculated from the changes of transmission accompanied by the platelet aggregation.
Various concentrations of the test compounds in the test solution were selected to investigate the relationship between the concentration and the inhibitory rate for the evaluation of inhibitory rate of platelet aggregation induced by PAF. […] The inhibitory rate for the positive control compound, CV-3988 (rac-3-(N-n-octadecylcarbamoyl)-2-methoxypropyl-2-thiazolium ethyl phosphate) is also shown in Table 4.

Test [4] has the same test system. To be noted: Life Science, 32, 1975-1982 (1983); cited from earlier work.

Structures can show the parent of a compound that is named as a salt.

With `O=C(O)/C=C/c1ccc(Cn2ccnc2)cc1` [Ozagrel HCl, reference compound], the “inhibitory effect against TXA2 synthesis (literature, in words)” value in test [1] is “very high inhibitory effect against TXA2 synthesis”. In test [2], this molecule displayed an IC50 of 17 nM.

Take `CCCCCCCCCCCCCCCCCCNC(=O)OCC(COP(=O)([O-])OCC[n+]1ccsc1)OC` (racemic) [CV-3988, rac-3-(N-n-octadecylcarbamoyl)-2-methoxypropyl-2-thiazolium ethyl phosphate, reference compound]: the inhibition at 30 µM in test [3] was determined as 78%. Also, in test [4], the “anti-PAF activity (literature, in words)” value is reported as “high anti-PAF activity”.
